Like-named read-outs stand apart in the source and are kept apart here.
Molecular target: T1, LmjIPCS (inositol phosphorylceramide synthase from L. major) (Leishmania major, UniProt E9AFX2)
T1 sequence (E9AFX2 1-338): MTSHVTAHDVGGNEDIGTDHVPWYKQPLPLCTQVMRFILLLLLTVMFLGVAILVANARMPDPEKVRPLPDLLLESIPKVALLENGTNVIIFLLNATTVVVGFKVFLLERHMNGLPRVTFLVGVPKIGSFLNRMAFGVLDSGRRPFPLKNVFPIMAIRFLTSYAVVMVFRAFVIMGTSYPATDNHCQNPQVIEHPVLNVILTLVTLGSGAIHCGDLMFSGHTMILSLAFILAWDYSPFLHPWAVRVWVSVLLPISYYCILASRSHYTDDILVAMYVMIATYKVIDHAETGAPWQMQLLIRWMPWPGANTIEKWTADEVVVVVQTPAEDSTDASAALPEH
Assay: biochemical
Format: biochemical
Design: inhibition: dose or concentration left out as unconfirmed
Conditions: for inhibition: read-out: inhibition LmjIPCS; for inhibition at 20000 µM: read-out: 20mM inhibition LmjIPCS

[1] = screening of NINDS set, sheet Screen 1
[2] = NINDS set screen, single concentration printed as 20mM

NC(=O)N1c2ccccc2C=Cc2ccccc21 [CARBAMAZEPINE]
20mM inhibition LmjIPCS: 50%

CCCCC(=O)N(Cc1ccc(-c2ccccc2-c2nnn[nH]2)cc1)[C@H](C(=O)O)C(C)C
inhibition: 20%

O=C(c1ccccc1)c1ccc2n1CCC2C(=O)O (centres unmarked) [KETOROLAC]
inhibition (NINDS set screen): 20%

CN1CCN(C2=Nc3ccccc3Oc3ccc(Cl)cc32)CC1 [LOXAPINE]
20mM inhibition LmjIPCS: 68%

CO/N=C(\C(=O)N[C@@H]1C(=O)N2C(C(=O)O)=C(COC(C)=O)CS[C@H]12)c1csc(N)n1 [CEFOTAXIME]
20mM inhibition LmjIPCS: 44%

Nc1nc2c(c(=O)[nH]1)N(C=O)C(CNc1ccc(C(=O)N[C@@H](CCC(=O)O)C(=O)O)cc1)CN2 (some centres unmarked) [LEUCOVORIN]
inhibition (NINDS set screen): 17%

NC(=O)c1cnccn1 [PYRAZINAMIDE]
inhibition (NINDS set screen): -17%

CC(C)c1nc(N(C)S(C)(=O)=O)nc(-c2ccc(F)cc2)c1/C=C/[C@@H](O)C[C@@H](O)CC(=O)O [ROSUVASTATIN]
inhibition (NINDS set screen): 12%

OC(c1cc(C(F)(F)F)nc2c(C(F)(F)F)cccc12)C1CCCCN1 (centres unmarked) [MEFLOQUINE]
20mM inhibition LmjIPCS: 49%

COC(=O)Nc1nc2ccc([S+]([O-])c3ccccc3)cc2[nH]1 (centres unmarked) [OXFENDAZOLE]
inhibition [1]: 10%

CN1[C@H]2C[C@H](OC(=O)[C@H](CO)c3ccccc3)C[C@@H]1[C@@H](O)C2 [ANISODAMINE]
20mM inhibition LmjIPCS: 16%

Oc1c(I)cc(I)c2cccnc12 [IODOQUINOL]
inhibition (NINDS set screen): 23%

NCc1ccc(S(N)(=O)=O)cc1 [MAFENIDE]
inhibition at 20000 µM: 11%

CCCCC(CC)CNC(=N)NC(=N)NCCCCCCNC(=N)NC(=N)NCC(CC)CCCC (centres unmarked) [ALEXIDINE]
20mM inhibition LmjIPCS [2]: 47%

OC(CCN1CCCCC1)(c1ccccc1)C1CCCCC1 (centres unmarked) [TRIHEXYPHENIDYL]
20mM inhibition LmjIPCS: 57%

Cc1c(N(C)CS(=O)(=O)[O-])c(=O)n(-c2ccccc2)n1C.[Na+] [DIPYRONE]
20mM inhibition LmjIPCS (NINDS set screen, single concentration 20mM as printed): -7.57%

Cc1ccnc(NS(=O)(=O)c2ccc(N)cc2)n1 [SULFAMERAZINE]
inhibition at 20000 µM: 3.51%

CC(C)(S)[C@@H](N)C(=O)O [PENICILLAMINE]
inhibition at 20000 µM: 20%

CC[N+](CC)(CC)CCOc1cccc(OCC[N+](CC)(CC)CC)c1OCC[N+](CC)(CC)CC [GALLAMINE TRIETHIODIDE]
inhibition at 20000 µM: -1.76%

OC[C@H]1O[C@@H](O[C@@H]2[C@@H](CO)OC(O)(CO)[C@H]2O)[C@H](O)[C@@H](O)[C@H]1O (mixture of isomers) [LACTULOSE]
inhibition at 20000 µM: 26%

c1ccc2c(c1)sc1ccccc12 [DIBENZOTHIOPHENE]
inhibition at 20000 µM: 32%

O=C(O)c1nc2cc(Cl)c(Cl)cc2nc1O
inhibition (NINDS set screen): -14%

O=C1c2ccccc2-c2cccc3cccc1c23 [BENZANTHRONE]
inhibition at 20000 µM: 16%

Nc1c2c(nc3ccccc13)CCCC2 [9-AMINO-1,2,3,4-TETRAHYDROACRIDINE]
20mM inhibition LmjIPCS: 13%

CC(NC(C)(C)C)C(=O)c1cccc(Cl)c1 (centres unmarked) [BUPROPION]
inhibition: 29%

COC(=O)[C@H](c1ccccc1Cl)N1CCc2sccc2C1 [CLOPIDOGREL]
inhibition at 20000 µM: 32%

Cc1c(N(C)C)c(=O)n(-c2ccccc2)n1C [AMINOPHENAZONE]
inhibition: -19%

Cc1ccc(/N=C/N(C)/C=N/c2ccc(C)cc2C)c(C)c1 [AMITRAZ]
20mM inhibition LmjIPCS: 55%

COc1cc(O)c2c(c1)C(=O)c1cc(C)cc(O)c1C2=O [PHYSCION]
inhibition: 18%

C[C@@H]1O[C@@H](OC[C@H]2O[C@@H](Oc3c(-c4ccc(OCCO)c(OCCO)c4)oc4cc(OCCO)cc(O)c4c3=O)[C@H](O)[C@@H](O)[C@@H]2O)[C@H](O)[C@H](O)[C@H]1O [TROXERUTIN]
inhibition at 20000 µM: 20%

CC(=O)Oc1cccc(O)c1 [RESORCINOL MONOACETATE]
inhibition [1]: 4%

CNC(C)C(O)c1ccccc1 (centres unmarked) [RACEPHEDRINE]
20mM inhibition LmjIPCS: 41%

C[C@@H]1CC[C@H]2[C@@H](C)C(=O)O[C@@H]3O[C@@]4(C)CC[C@@H]1[C@]32OO4 [ARTEMISININ]
inhibition: 1.06%

c1ccc2[nH]c(-c3cscn3)nc2c1 [THIABENDAZOLE]
20mM inhibition LmjIPCS [2]: 41%

COc1ccc(-c2cc(C(F)F)nn2-c2ccc(S(N)(=O)=O)cc2)cc1F [DERACOXIB]
inhibition at 20000 µM: 28%

CCCCOc1cc(C(=O)NCCN(CC)CC)c2ccccc2n1 [DIBUCAINE]
20mM inhibition LmjIPCS: 63%

C[C@]12C=CC(=O)C=C1CC[C@H]1[C@@H]3C[C@@H](O)[C@](O)(C(=O)CO)[C@@]3(C)C[C@H](O)[C@@]12F [TRIAMCINOLONE]
inhibition (NINDS set screen): -1.57%

C1CCC(C(CC2CCCCN2)C2CCCCC2)CC1 (centres unmarked) [PERHEXILINE]
inhibition: 12%

Source: article PMC7802075 (ACS Infectious Diseases, 2020)
